# Patent US20090233942A1, “Genetic markers associated with response to antidepressants” (priority 2008, published 2009)
# Tested on: patients with MDD
# Test: Five Phase II studies of vilazodone, eight weeks of treatment
# Assay type: in vivo, human
# Source text: As part of the vilazodone development program, five Phase II studies have been conducted, all in patients with MDD. These studies randomized 2,098 patients for eight weeks of treatment, 1196 of whom received vilazodone.
compound,measurement,setting,value
"Cl.N#Cc1ccc2[nH]cc(CCCCN3CCN(c4ccc5oc(C(N)=O)cc5c4)CC3)c2c1 [Vilazodone, 5-{4-[4-(5-Cyano-3-indolyl)-butyl]-1-piperazinyl}-benzofuran-2-carboxamide hydrochloride]",overall safety,Phase II studies,generally shown to be safe
same,clinically significant finding from ophthalmologic examinations,"Phase II, subjects treated with vilazodone",increase in the incidence of mild ocular drying
same,primary efficacy variable compared to placebo,each of the Phase II studies,did not show a statistically significant difference
same,response stratified by baseline disease severity,exploratory analyses of Phase II studies,a larger treatment effect is observed for more severely depressed patients
same,most common adverse events,"reported by at least ten percent of vilazodone-treated patients, Phase II, MDD","nausea, diarrhea, headache, insomnia, dizziness, dry mouth, somnolence, abnormal dreams, and vomiting"
